This note sets out measurements from patent US12370256B2, “Activation of resident memory T cells for the treatment of cancer” (Regents of the University of Minnesota, priority 2017, dated 2025).

This assay relates to B16 melanoma. It is filed as in vivo, C57B/6 mice.

For the sequence “SIINFEKL (Synthetically generated peptide)”, the “tumor growth (tumor size)” value (peptide alone, 0.5 μg in 30 μl PBS into established palpable tumor, once or twice 2 days apart, no adjuvant) is “significant inhibition of a rapidly growing tumor”. The “tumor size and survival, peptide combined with PD-L1 blockade” value (peptide twice intratumorally over 48 h plus three i.v. injections of anti-PDL1) is listed as “synergizes with PD-L1 blockade”.
